Results taken from patent US20240109855A1, “ANTI-QUORUM SENSING, ANTI-BIOFILM, AND INFLAMMATION ATTENUATING COMPOUNDS, COMPOSITIONS, AND METHODS OF USING SAME” (priority 2021, published 2024).
“Also recorded” adds a separate entry of the source.

What was measured:
[1] = system: gram-positive and gram-negative bacteria; assay: Antibacterial activity, overall statement (diffusion discs test); type: cell-based; settings: Table 6 summary; also: key: +: active; −: inactive
Protocol: All derivatives were dissolved in acetonitrile to a final concentration of 40 mM. Twenty (20) μl were loaded onto Whatman filter paper discs and dried. Bacillus subtilis, Staphylococcus aureus, and Acinetobacter baumannii were grown in LB (Lenox) O.N. One hundred (100) μl from the starter culture was plated on LB agar (Miller) dishes. Streptococcus sobrinus, and Streptococcus mutans grown in Brain Heary Infusion (BHI, Himedia) O.N. were similarly plated on BHI agar dishes. Discs were laid and incubated O.N. in 37° C. and the diameter of inhibition of bacterial growth was measured.
The antibacterial activities of derivatives showing QSI are outlined in Table 4. […] Similar to that idea, synthetic derivatives of furanon (product of marine algae) shown in-vivo QSI activity without antibacterial activity followed by immune response of the infected animal. Phenolic compounds decrease QS and virulence in PA01 and Chromobacterium violaceum. There is increasing number of studies, searching for compounds that targeting non-vital processes to combat bacteria.

in vitro = settings: human, LC50
Protocol: (§1) The human Hodgkin's Lymphoma derived L428 cell line was used as a model. The cells were grown in RPMI Medium 1640 with 10% FBS, 1% Glutamine and pen-strep (all from Biological Industries, Israel). […] Thirty thousand (30,000) cells/well were placed in 96-well plates with the coumaperine derivatives at different concentrations or with vehicle (DMSO) at a final volume of 200 μl. The plates were incubated for 48 hrs. at 37° C. and 5% CO2 followed by the addition of 50 μl of the XTT reagent tetrazolium-formazan, (Biological Industries, Israel) was added for 2 hrs. at 37° C., 5% CO2. In living cells, mitochondria […] the tetrazolium-formazan salt, thereby generating a color absorbing product at 450 nm. Absorbance was measured at 450 nm and 650 nm in an enzyme-linked immunosorbent assay (ELISA) plate reader (Multiskan Spectrum, Version 1.2), and recorded. Absorption values at 650 nm were subtracted from the blank and the 450 nm values. The results were normalized to the control (treated with DMSO).
(§2) Viability was determined in triplicate in two independent tests. The results were normalized to vehicle (DMSO) treated cells, (100% viability). Mean+SD.

L428 cells = assay: in vitro
Protocol: as §1, §2

[2] = system: QS genes lasR, lasI, rhlR and rhlI; assay: RT-qPCR of P. aeruginosa (PA01) QS genes; type: cell-based; settings: PA01 co-incubated seven hours
Protocol: FIGS. 13A-13C include vertical bar graphs showing the dose response inhibition of QS by PL-18. Bioluminescence indicator bacteria containing the P. aeruginosa reporter genes rhlRI (13A) and lasRI (13B) were used. The reporter bacteria were incubated with and range of PL-18 concentrations or DMSO, together with (+AI) or without (−AI) the proper auto-inducer. Bioluminescence was recorded at 15 min intervals for 10 hrs at 37° C. The maximum signal in each group was normalized to the inducer's bioluminescence maximum signal with 0.5% DMSO. Mean±SD, One-way ANOVA followed by Dunett's multiple comparisons test was performed (p-value ***≤0.0002). N=9 (triplicate samples in three independent experiments). (13C) RT-qPCR of P. aeruginosa (PA01) QS genes. PA01 was co-incubated with two doses of PL-18 for seven hours, lysed and total RNA was extracted and converted to cDNA followed by target genes qPCR amplification. N≥16, Mean±SD. Two-way ANOVA, 95% confidence interval.
The inhibition of rhlR-rhlI system was slightly better than the inhibition of lasR-lasI. […] The relative transcription levels of QS genes lasR, lasI, rhlR and rhlI, was determined by RT-qPCR.

pyocyanin = assay: Pyocyanin secretion by P. aeruginosa; type: cell-based; settings: cell-free culture medium, spectrometry
Protocol: FIGS. 14A-14B include vertical bar graphs showing that PL-18 inhibition effects on secretion of virulence factors by P. aeruginosa. (14A) Pyocyanin was extracted in the chloroform-HCl method and measured in a plate-reader at 380 nm. (14B) Determination of rhamnolipids content was measured at 570 nm of the cell-free supernatant after adjustment to pH-2. All results were normalized and compere to the control group-DMSO 0.16%. Mean±SD, One-way ANOVA followed by Dunett's multiple comparisons test (p-values *≤0.0332, ***≤0.0002). N=9 (in three independent experiments).
To test whether PL-18 inhibits virulence effectors secreted by P. aeruginosa, the relative abundance of the virulence factors pyocyanin and rhamnolipids in the bacterial cell-free culture medium was determined by spectrometry.

elastase = assay: Elastase secretion by P. aeruginosa; type: cell-based; settings: data not shown
P. aeruginosa [3] = assay: Motility of P. aeruginosa; type: cell-based; settings: data not shown
P. aeruginosa [4] = assay: Toxicity to P. aeruginosa (CFU scoring, kinetic O.D.600nm); type: cell-based; settings: at the concentrations tested, data not shown
Protocol: The inventors also determined the toxicity of PL-18 to P. aeruginosa. Viability was tested by scoring CFUs of PL-18 treated P. aeruginosa cultures and bacterial growth was determined by incubation with PL-18 for kinetic O.D.600nm measurements.

SMILES: COc1cc(/C=C/C(=O)N2CCC=CC2=O)cc(O)c1O [PL-18, Dihydroxy piperlongumine]
- Antibacterial [1]: −
- CC50 at 48 h (in vitro): 9.3 µM
- Cytotoxic (L428 cells): +
- Relative transcription levels of QS genes lasR, lasI, rhlR and rhlI [2]: strongly decreased
- Inhibition of pyocyanin secretion (pyocyanin): inhibit both virulence factors in a dose dependent manner; also recorded: effectively attenuate
- Inhibition of elastase secretion (elastase): not shown to inhibit; also recorded: not found to inhibit
- Inhibition of motility (P. aeruginosa [3]): not shown to inhibit; also recorded: not found to inhibit
- Effect on P. aeruginosa growth (O.D.600nm) (P. aeruginosa [4]): did not affect P. aeruginosa growth
- Toxicity to P. aeruginosa (viability, CFUs) (P. aeruginosa [4]): non-toxic
